Laboratory results as given in patent US6420129B1, “Reagent composition for determination of electrolytes” (Toyo Boseki Kabushiki Kaisha, priority 1998, dated 2002).

Key:
[1] = target: T1, Inactive α-amylase (from swine pancreas) (Sus scrofa, UniProt P00690); experiment: Relative sensitivity in determination of calcium with 10 mg/dl calcium standard solution; type: biochemical; details: for Relative sensitivity (%) when sensitivity in case of no addition is taken as 100%: just after the preparation, 10 mg/dl calcium standard; for sensitivity in the determination of the standard solution (in words): by addition of the agent, versus no addition
T1 construct: α-amylase derived from the swine pancreas; from tissue; host or cells: swine pancreas
T1 sequence (P00690 16-511): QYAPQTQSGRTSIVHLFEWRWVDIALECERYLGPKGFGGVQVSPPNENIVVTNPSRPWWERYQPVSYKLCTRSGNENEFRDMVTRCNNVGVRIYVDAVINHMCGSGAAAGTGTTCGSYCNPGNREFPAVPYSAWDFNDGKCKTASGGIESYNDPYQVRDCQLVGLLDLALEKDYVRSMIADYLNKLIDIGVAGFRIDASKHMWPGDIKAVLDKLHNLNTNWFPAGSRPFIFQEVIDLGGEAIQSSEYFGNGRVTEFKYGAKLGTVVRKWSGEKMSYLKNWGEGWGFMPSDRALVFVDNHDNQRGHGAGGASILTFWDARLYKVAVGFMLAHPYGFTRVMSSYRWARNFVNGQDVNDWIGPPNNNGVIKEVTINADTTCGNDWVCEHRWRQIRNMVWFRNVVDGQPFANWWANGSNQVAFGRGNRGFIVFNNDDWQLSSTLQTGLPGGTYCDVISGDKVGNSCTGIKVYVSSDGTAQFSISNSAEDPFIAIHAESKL
Experimental: [table] In the test enzyme solutions of the reagents for the determination of calcium with the reagent formulations as described above in Example 1, glucosyl-α-cyclodextrin, maltosyl-α-cyclodextrin, glucosyl-β-cyclodextrin, or maltosyl-β-cyclodextrin was independently added as a cyclodextrin derivative at 0, 1.5, 3, 6, or 12 mM. To the test enzyme solutions containing 3 mM glucosyl-β-cyclodextrin was further added independently N-acetylcysteine or reduced glutathione at 2.5, 5, 10, or 20 mM, and the determination of calcium ions with a calcium standard solution was carried out as described below. According to the method as described below, the determination of the amount of calcium was carried out for test solutions just after the preparation with 10 mg/dl calcium standard solution as a sample, and the relative sensitivity (%) was determined under the respective reagent conditions when the sensitivity in the case of no addition of cyclodextrin derivatives was taken as 100%. B. Method for the Determination of the Amount of Calcium To 5.8 μl of a sample was added 180 μl of a test enzyme solution, and the mixture was pre-warmed for 5 minutes, to which 90 μl of a test substrate solution was further added to make the reaction start. […] The measuring apparatus used was HITACHI Automatic Analyzer model 7170. The measurement wavelength was 405 nm for the principal wavelength and 546 nm for the second wavelength. The measurement was carried out at 37° C. […] The test solutions thus prepared were used for the determination of the calcium standard solution in the same manner as described in Example 3.

[2] = target: T1, Inactive α-amylase (from swine pancreas); experiment: Residual activity of α-amylase in test enzyme solutions after storage; type: biochemical; details: after storage at 35° C. for 7 days
Experimental: [table] In the test enzyme solutions of the reagents for the determination of calcium with the reagent formulations as described above in Example 1, glucosyl-α-cyclodextrin, maltosyl-α-cyclodextrin, glucosyl-β-cyclodextrin, or maltosyl-β-cyclodextrin was independently added as a cyclodextrin derivative at 12 mM. […] Instead of the cyclodextrin derivatives and the SH group containing compounds in the reagent formulations as described above in Example 1, glucose (100 mM), maltose (50 mM), maltotriose (30 mM), α-cyclodextrin (1.5 mM), β-cyclodextrin (1.5 mM), γ-cyclodextrin (1.5 mM), N-acetylcysteine (20 mM), or reduced glutathione (20 mM) was independently added to have the respective concentrations as shown in Table 3.

[3] = Visual observation of test solutions for deposition of crystals or white turbidity; type: physicochemical; set-up: key to turbidity (visual observation): +: turbidity found; −: no turbidity
Experimental: Among the reagents for the determination of calcium with the reagent formulations as described below, test enzyme solutions were prepared by the addition of glucosyl-α-cyclodextrin (G1αCD), maltosyl-α-cyclodextrin (G2αCD), glucosyl-p-cyclodextrin (G1βCD), or maltosyl-β-cyclodextrin(G2βCD) as a cyclodextrin derivative to have a concentration of 0, 1.5, 3, 6, or 12 mM. To the test enzyme solutions containing 3 mM glucosyl-β-cyclodextrin was further added independently N-acetylcysteine or reduced glutathione to have a concentration of 2.5, 5, 10, or 20 mM.
Both kinds of test solutions prepared by the above procedures were stored at 4° C. for 3 months. Visual observation of the test solutions was carried out just after the preparation and after the storage to examine whether there was found the deposition of crystals or the presence of white turbidity. The results are shown in table 1 for the visual observation just after the preparation and in Table 2 for the visual observation after the storage.
The test solutions were prepared in the same manner as described in Example 1, except that α-cyclodextrin (αCD) (1.5, 3, 6, or 12 mM), β-cyclodextrin (βCD) (1.5, 3, 6, or 12 mM), or γ-cyclodextrin (γCD) (1.5, 3, 6, or 12 mM) was independently added instead of the cyclodextrin derivatives and the SH group containing compounds in the above reagent formulations to have the respective concentrations as shown in Table 1. Both kinds of test solutions were stored at 4° C. for 3 months. Visual observation of the test solutions was carried out just after the preparation and after the storage to examine whether there was found the deposition of crystals or the presence of white turbidity. The results are shown in Table 1 for the visual observation just after the preparation and in Table 2 for the visual observation after the storage.

[4] = target: T1, Inactive α-amylase (from swine pancreas); experiment: Relative sensitivity in determination of calcium with 10 mg/dl calcium standard solution; type: biochemical
[5] = after storage at 4° C. for 3 months, agent added 1.5 mM
[6] = after storage at 4° C. for 3 months, agent added 3 mM
[7] = after storage at 4° C. for 3 months, agent added 6 mM
[8] = after storage at 4° C. for 3 months, agent added 12 mM
[9] = just after the preparation, agent added 1.5 mM
[10] = just after the preparation, agent added 3 mM
[11] = just after the preparation, agent added 6 mM
[12] = just after the preparation, agent added 12 mM
[13] = after the storage at 4° C. for 3 months, at 3 mM
[14] = just after the preparation, at 6 mM

Relative sensitivity (%) when sensitivity in case of no addition is taken as 100% ([1]; agent 1.5 mM)	Relative sensitivity (%) when sensitivity in case of no addition is taken as 100% ([1]; agent 3 mM)	Relative sensitivity (%) when sensitivity in case of no addition is taken as 100% ([1]; agent 6 mM)	Relative sensitivity (%) when sensitivity in case of no addition is taken as 100% ([1]; agent 12 mM)	Residual activity (%) ([2]; agent 12 mM)	turbidity (visual observation) [3, 5]	turbidity (visual observation) [3, 6]	turbidity (visual observation) [3, 7]	turbidity (visual observation) [3, 8]	turbidity (visual observation) [3, 9]	turbidity (visual observation) [3, 10]	turbidity (visual observation) [3, 11]	turbidity (visual observation) [3, 12]	Compound	also measured
112.8%	120.2%	122.3%	118.9%	80.4%	−	−	−	−	−	−	−	−	OCC1OC(OCC2OC3OC4C(CO)OC(OC5C(CO)OC(OC6C(CO)OC(OC7C(CO)OC(OC8C(CO)OC(OC2C(O)C3O)C(O)C8O)C(O)C7O)C(O)C6O)C(O)C5O)C(O)C4O)C(O)C(O)C1O (stereo not drawn) [G1αCD, glucosyl-α-cyclodextrin]	
					−	−	+	+	−	−	+	+	OC[C@H]1O[C@@H]2O[C@H]3[C@H](O)[C@@H](O)[C@@H](O[C@H]4[C@H](O)[C@@H](O)[C@@H](O[C@H]5[C@H](O)[C@@H](O)[C@@H](O[C@H]6[C@H](O)[C@@H](O)[C@@H](O[C@H]7[C@H](O)[C@@H](O)[C@@H](O[C@H]1[C@H](O)[C@H]2O)O[C@@H]7CO)O[C@@H]6CO)O[C@@H]5CO)O[C@@H]4CO)O[C@@H]3CO [αCD, α-cyclodextrin, reference compound]	Residual activity (%) ([2]; agent 1.5 mM): 70.5%; turbidity of test enzyme solution (in words) [3, 13]: became turbid; turbidity of test enzyme solution (in words) [3, 14]: had already become turbid
					−	−	+	+	−	−	+	+	OC[C@H]1O[C@@H]2O[C@H]3[C@H](O)[C@@H](O)[C@@H](O[C@H]4[C@H](O)[C@@H](O)[C@@H](O[C@H]5[C@H](O)[C@@H](O)[C@@H](O[C@H]6[C@H](O)[C@@H](O)[C@@H](O[C@H]7[C@H](O)[C@@H](O)[C@@H](O[C@H]8[C@H](O)[C@@H](O)[C@@H](O[C@H]9[C@H](O)[C@@H](O)[C@@H](O[C@H]1[C@H](O)[C@H]2O)O[C@@H]9CO)O[C@@H]8CO)O[C@@H]7CO)O[C@@H]6CO)O[C@@H]5CO)O[C@@H]4CO)O[C@@H]3CO [γCD, γ-cyclodextrin, reference compound]	Residual activity (%) ([2]; agent 1.5 mM): 74.6%; turbidity of test enzyme solution (in words) [3, 13]: became turbid; turbidity of test enzyme solution (in words) [3, 14]: had already become turbid
112.5%	123.0%	119.4%	122.8%	82.3%	−	−	−	−	−	−	−	−	OCC1OC(OC2C(CO)OC(OCC3OC4OC5C(CO)OC(OC6C(CO)OC(OC7C(CO)OC(OC8C(CO)OC(OC9C(CO)OC(OC3C(O)C4O)C(O)C9O)C(O)C8O)C(O)C7O)C(O)C6O)C(O)C5O)C(O)C2O)C(O)C(O)C1O (stereo not drawn) [G2αCD, maltosyl-α-cyclodextrin]	
													CC(=O)N[C@@H](CS)C(=O)O [NAC, N-acetylcysteine]	remaining activity at 20000 µM ([2]; agent 20 mM): 71.2%
													OC[C@H]1O[C@H](O[C@H]2[C@H](O)[C@@H](O)C(O)O[C@@H]2CO)[C@H](O)[C@@H](O)[C@@H]1O (mixture of isomers) [maltose]	sensitivity in the determination of the standard solution (in words) [1]: remarkably decreased; remaining activity at 50000 µM ([2]; agent 50 mM): 73.5%; Relative sensitivity (%) when sensitivity in case of no addition is taken as 100% ([4]; agent 6.3 mM): 99.7%; Relative sensitivity (%) when sensitivity in case of no addition is taken as 100% ([4]; agent 12.5 mM): 89.3%; Relative sensitivity (%) when sensitivity in case of no addition is taken as 100% ([4]; agent 25 mM): 83.9%; Relative sensitivity (%) when sensitivity in case of no addition is taken as 100% ([4]; agent 50 mM): 70.1%
122.8%	120.7%	120.2%	123.0%	93.0%	−	−	−	−	−	−	−	−	OCC1OC(OC2C(CO)OC(OCC3OC4OC5C(CO)OC(OC6C(CO)OC(OC7C(CO)OC(OC8C(CO)OC(OC9C(CO)OC(OC%10C(CO)OC(OC3C(O)C4O)C(O)C%10O)C(O)C9O)C(O)C8O)C(O)C7O)C(O)C6O)C(O)C5O)C(O)C2O)C(O)C(O)C1O (stereo not drawn) [G2βCD, maltosyl-β-cyclodextrin]	
													N[C@@H](CCC(=O)N[C@@H](CS)C(=O)NCC(=O)O)C(=O)O [GSH, reduced glutathione]	Residual activity (%) ([2]; agent 20 mM): 75.4%
													OCC1OC(OC2C(CO)OC(OC3C(CO)OC(O)C(O)C3O)C(O)C2O)C(O)C(O)C1O (stereo not drawn) [maltotriose]	sensitivity in the determination of the standard solution (in words) [1]: remarkably decreased; Residual activity (%) ([2]; agent 30 mM): 77.3%; Relative sensitivity (%) when sensitivity in case of no addition is taken as 100% ([4]; agent 3.8 mM): 47.1%; Relative sensitivity (%) when sensitivity in case of no addition is taken as 100% ([4]; agent 7.5 mM): 24.3%; Relative sensitivity (%) when sensitivity in case of no addition is taken as 100% ([4]; agent 15 mM): 7.4%; Relative sensitivity (%) when sensitivity in case of no addition is taken as 100% ([4]; agent 30 mM): 4.6%
